Results as given in article PMC9814400 (Communications Chemistry, 2022).

Tests used:
N-domain of p97 = biological target: T1, N-domain of p97 (Homo sapiens, UniProt P55072); assay: STD-NMR build-up measurements with the isolated N-domain; format: binding
T1 construct: additional STD measurements with the isolated N-domain were carried out; made in house
Description: To obtain additional information about the putative binding mode of the selected fragments, full STD-NMR build-up curves were measured for the fragments TROLL2, TROLL7, TROLL8 and TROLL12 and the initial rates of STD build-up (STD0) were calculated. […] As expected, the saturation effects were higher for the ND1 construct compared to the isolated N-domain due to the stronger nuclear Overhauser effect (NOE) of the much larger protein. Because of water suppression, not all hydrogens of the selected fragments were experimentally accessible. For the remaining hydrogen atoms, different STD0 values were determined, indicating a defined orientation of the fragments upon binding to p97 (Supplementary Fig. 7). For TROLL2, TROLL7 and TROLL12 a clear dominance in the saturation of the protons at the hydrophobic aromatic parts of the molecules was visible.
For binding epitope mapping of selected fragments, the initial growth rates approach was used as described. For determination of the initial rate of STD build up (STD0) the STD intensities for seven saturation times (0.5, 0.75, 1.0, 1.5, 2.0, 3.0, 5.0 s) were measured for the ND1 as well as for the isolated N-domain and fitted by an exponential equation using R. The recycle delay (d1) was set to 5 s. For each fragment also a negative control without protein was measured with a saturation time of 5.0 s. Theoretical STD0 values on the basis of the obtained X-ray crystal structure as well as for representative mixed-solvent MD poses were calculated using the Complete Relaxation and Conformational Exchange Matrix Analysis of Saturation Transfer (CORCEMA-ST) software version 3.8[72] and ShiftX version 1.1[73]. Predicted and experimental STD-data were evaluated using the NOE R-factor (see Supplementary Methods in the Supporting Information).

p97-ND1 = biological target: T2, p97-ND1 (Homo sapiens, UniProt P55072); assay: STD-NMR with p97-ND1 in the presence of 500 µM ADP; format: binding; design: key to mean STD-effect (ND1) / maximum STD-effect (ND1): STD effect = Idiff/Ioff × 100 (%); settings: for maximum STD-effect (ND1) / mean STD-effect (ND1): Supplementary Table 3; for STD (maximum STD signal measured with p97-ND1): aromatic resonances, 428 µM fragment, 30 µM protein, 500 µM ADP
T2 construct: His6 (TEV protease-cleavable) (N); made in house
Description: The NMR measurements were carried out with the biologically more relevant p97-ND1 construct in the presence of 500 µM ADP to block the nucleotide binding site. The STD effect was calculated by dividing the intensity of the difference spectrum by the intensity of the off-spectrum (Idiff/ Ioff × 100) for each signal. For further analysis only resonances in the aromatic region of the ^1H NMR spectrum of the individual ligand were considered. A mean STD effect of each fragment interacting with p97-ND1 was calculated using the sum of the individual STD effects divided by the number of signals considered. Furthermore, the maximum STD effect of each compound was determined. […] Similar results were obtained in the previously reported fragment screen with p97[26]. An overview of the STD effects is shown in Supplementary Fig. 4.
All Saturation-Transfer-Difference (STD)[32] measurements were performed on a Bruker Avance III 400 MHz spectrometer (Karlsruhe, Germany) operating at 400.13 MHz with a PABBI 1H/D-BB Z-GRD inverse probe at 300 K adjusted with a BSVT (Bruker) temperature control unit. Temperature calibration was carried out with 99.8% CD3OD (282–330 K). The stddiffesgp.3 pulse program from the Bruker pulseprogram library was used for data acquisition. The suppression of the HDO signal (4.703 ppm) was achieved by the excitation sculpting method. The saturation frequency for the on- and off-resonances was set to −400 Hz and −16,000 Hz, respectively. The saturation time was 3 s with a relaxation delay D1 of 4 s.
The protein stock solutions were transferred to a deuterated buffer containing 35 mM potassium phosphate and 25 mM NaCl in D2O at a pD of 7.5 using 0.5 mL Centricon devices (Merck Millipore) with a MWCO of 30 kDa by washing and centrifuging several times at 10,000 × g and 4 °C. Buffer-exchanged protein was adjusted to a concentration of 30 µM with NMR buffer. The respective fragment concentration was 428 µM with a final DMSO-d6 fraction of 5% (v/v). All measurements were performed in the presence of 500 µM ADP (in case of the ND1 domain) and 5 mM MgCl2. All data were analyzed using TopSpin 4.0.8 (Bruker Corporation, Billerica, MA, USA).

T2 sequence (P55072 2-481): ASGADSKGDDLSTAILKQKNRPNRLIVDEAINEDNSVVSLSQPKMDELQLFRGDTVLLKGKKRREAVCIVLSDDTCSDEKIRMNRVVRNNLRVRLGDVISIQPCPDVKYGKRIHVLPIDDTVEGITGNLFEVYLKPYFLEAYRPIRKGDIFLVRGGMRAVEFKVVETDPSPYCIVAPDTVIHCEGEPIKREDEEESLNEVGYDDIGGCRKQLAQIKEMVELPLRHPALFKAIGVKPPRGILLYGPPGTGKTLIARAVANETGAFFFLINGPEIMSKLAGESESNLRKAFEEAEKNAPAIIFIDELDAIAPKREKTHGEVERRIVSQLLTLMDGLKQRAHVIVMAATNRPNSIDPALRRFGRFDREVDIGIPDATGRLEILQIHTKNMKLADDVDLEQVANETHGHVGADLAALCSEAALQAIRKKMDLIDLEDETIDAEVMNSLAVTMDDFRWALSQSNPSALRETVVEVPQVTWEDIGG
T1 sequence (P55072 21-199 limits assumed): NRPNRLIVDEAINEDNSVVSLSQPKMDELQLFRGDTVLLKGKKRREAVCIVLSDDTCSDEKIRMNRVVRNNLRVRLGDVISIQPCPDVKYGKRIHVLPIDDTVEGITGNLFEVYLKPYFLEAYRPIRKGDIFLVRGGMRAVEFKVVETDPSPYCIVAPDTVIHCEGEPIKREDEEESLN

## NCC(O)c1ccc(Br)cc1 (stereo not drawn) [TROLL2]
N-domain of p97
  binding to the N-domain by STD-NMR: confirmed the binding
p97-ND1
  maximum STD-effect (ND1): 37.7
  mean STD-effect (ND1): 36.0
  STD (maximum STD signal measured with p97-ND1): 37.7%

## Cc1ccc(-c2cc(N)n[nH]2)o1 [TROLL8]
N-domain of p97
  binding to the N-domain by STD-NMR: confirmed the binding
p97-ND1
  maximum STD-effect (ND1): 41.0
  mean STD-effect (ND1): 33.1
  STD (maximum STD signal measured with p97-ND1): 41.0%

## Cc1oc(CN)nc1-c1ccccc1 [TROLL12]
N-domain of p97
  binding to the N-domain by STD-NMR: confirmed the binding
p97-ND1
  maximum STD-effect (ND1): 47.9
  mean STD-effect (ND1): 44.5
  STD (maximum STD signal measured with p97-ND1): 47.9%
